One block for each substance: values may come before it.
Legend:
[1] = Thermo stability test of esters and/or salts of hexahydro-β-acid (2% premix, 100° C., HPLC); format: physicochemical; details: premix with corncob powder, initial content 2.0%, oven 100° C.
Protocol: Samples (the premixes) were placed in crucibles, and then placed in oven at 100° C. for different durations. Then 1.0 g of each of the samples (three duplicate samples from each sample) and 50 ml of ethanol were added into a conical flask, followed by the addition of 100 μL of concentrated hydrochloric acid. The mixture was then subjected to sonication for 5 minutes, and then filtrated. The filtrate was transferred into a 50 ml volumetric flask, topped up to the final volume with ethanol, and then filtered with a 0.45 μm microporous membrane and subjected to HPLC analysis.

[2] = system: fast-grown yellow feather broilers (female); assay: Application effect in broiler feed (30 days feeding trial); format: in vivo; details: for Average daily weight gain / Average weight gain / Feed conversion efficiency / Survival rate / Consumption: broilers, 30 days; for Consumption: 100 broilers per group
Source text: 500 1-day-aged, healthy, fast-grown yellow feather broilers (female) in the same growing state and similar in weight were randomly divided into five groups according to table 2, 100 broilers in each group. Broilers of each group were fed with different dosages of mono decanoate ester of hexahydro-β-acid or hexahydro-β-acid.

[3] = system: Duroc-Yorkshire-Landrace crossbred lean pigs; assay: Application effect in pig feed (14 days feeding trial); format: in vivo; details: for Average daily weight gain / Average weight gain / Feed conversion efficiency / Consumption: pigs; for Consumption: 20 pigs
Source text: 120 67-day-aged, Duroc-Yorkshire-Landrace crossbred lean pigs similar in weight were randomly divided into six groups, 20 pigs in each group.

[4] = Group 3, 5 mg/kg mixed with feed
[5] = Group 4, 25 mg/kg mixed with feed
[6] = Group 5, 5 mg/kg mixed with feed
[7] = Group 6, 25 mg/kg mixed with feed

Substance: mono acetate ester of hexahydro-β-acid
- Content when being heated at 100° C. for 20 h [1]: 1.52%
- Content when being heated at 100° C. for 44 h [1]: 1.11%

Substance: zinc salt of hexahydro-β-acid
- Content when being heated at 100° C. for 20 h [1]: 0.95%
- Content when being heated at 100° C. for 44 h [1]: 0.52%

Substance: mono decanoate ester of hexahydro-β-acid
- feed conversion efficiency of the broilers ([2]; 30 days test period, in words): significantly improved
- weight gain of the broilers ([2]; 30 days test period, in words): significantly improved
- Average daily weight gain ([2]; 2 ppm mixed with feed): 25.6 g
- Average weight gain ([2]; 2 ppm mixed with feed): 768 g
- Feed conversion efficiency ([2]; 2 ppm mixed with feed): 1.926
- Survival rate ([2]; 2 ppm mixed with feed): 100%
- Consumption ([2]; 2 ppm mixed with feed): 147.94 kg
- Average daily weight gain ([2]; 20 ppm mixed with feed): 26.57 g
- Average weight gain ([2]; 20 ppm mixed with feed): 797 g
- Feed conversion efficiency ([2]; 20 ppm mixed with feed): 1.837
- Survival rate ([2]; 20 ppm mixed with feed): 100%
- Consumption ([2]; 20 ppm mixed with feed): 146.42 kg
- improvement of the productivity of the broilers ([2]; compared with hexahydro-β-acid in the same dosage): more significant than that of the broilers fed with hexahydro-β-acid in the same dosage
- Content when being heated at 100° C. for 20 h [1]: 1.93%
- Content when being heated at 100° C. for 44 h [1]: 1.82%

Substance: Cobalt Salt of Acetate Ester of hexahydro-β-acid
- Content when being heated at 100° C. for 20 h [1]: 0.17%
- Content when being heated at 100° C. for 44 h [1]: 0.12%

Substance: zinc salt of acetate ester of hexahydro-β-acid
- Content when being heated at 100° C. for 20 h [1]: 1.64%
- Content when being heated at 100° C. for 44 h [1]: 0.70%

Substance: hexahydro-β-acid [reference compound]
- Average daily weight gain ([2]; 2 ppm mixed with feed): 24.83 g
- Average weight gain ([2]; 2 ppm mixed with feed): 745 g
- Feed conversion efficiency ([2]; 2 ppm mixed with feed): 1.983
- Survival rate ([2]; 2 ppm mixed with feed): 100%
- Consumption ([2]; 2 ppm mixed with feed): 147.76 kg
- Average daily weight gain ([2]; 20 ppm mixed with feed): 25.26 g
- Average weight gain ([2]; 20 ppm mixed with feed): 758 g
- Feed conversion efficiency ([2]; 20 ppm mixed with feed): 1.968
- Survival rate ([2]; 20 ppm mixed with feed): 100%
- Consumption ([2]; 20 ppm mixed with feed): 149.18 kg
- Content when being heated at 100° C. for 20 h [1]: 0.06%
- Content when being heated at 100° C. for 44 h [1]: 0%

Substance: magnesium salt of hexahydro-β-acid
- Content when being heated at 100° C. for 20 h [1]: 1.49%
- Content when being heated at 100° C. for 44 h [1]: 0.91%

More lines, main results first:

- Content when being heated at 100° C. for 20 h [1]: 0.14%
- Content when being heated at 100° C. for 44 h [1]: 0.05%
Substance: ferrous salt of hexahydro-β-acid

- Content when being heated at 100° C. for 20 h [1]: 1.98%
- Content when being heated at 100° C. for 44 h [1]: 1.93%
Substance: cetylate ester of hexahydro-β-acid
- feed conversion efficiency of the pigs ([3]; in words): significantly improved
- weight gain of the pigs ([3]; in words): significantly improved
- Average daily weight gain [3, 4]: 0.512 kg/day
- Average weight gain [3, 4]: 7.18 kg
- Feed conversion efficiency [3, 4]: 2.078
- Consumption [3, 4]: 298.4 kg
- Average daily weight gain [3, 5]: 0.570 kg/day
- Average weight gain [3, 5]: 7.985 kg
- Feed conversion efficiency [3, 5]: 1.706
- Consumption [3, 5]: 272.5 kg
- Average daily weight gain [3, 6]: 0.508 kg/day
- Average weight gain [3, 6]: 7.11 kg
- Feed conversion efficiency [3, 6]: 1.949
- Consumption [3, 6]: 277.2 kg
- Average daily weight gain [3, 7]: 0.580 kg/day
- Average weight gain [3, 7]: 8.12 kg
- Feed conversion efficiency [3, 7]: 1.690
- Consumption [3, 7]: 274.5 kg

- Content when being heated at 100° C. for 20 h [1]: 1.50%
- Content when being heated at 100° C. for 44 h [1]: 1.28%
Substance: copper salt of acetate ester of hexahydro-β-acid

- Content when being heated at 100° C. for 20 h [1]: 0%
- Content when being heated at 100° C. for 44 h [1]: 0%
Substance: manganese salt of acetate ester of hexahydro-β-acid

- Content when being heated at 100° C. for 20 h [1]: 1.69%
- Content when being heated at 100° C. for 44 h [1]: 1.63%
Substance: Ferrous Salt of Acetate Ester of hexahydro-β-acid

- Content when being heated at 100° C. for 20 h [1]: 1.42%
- Content when being heated at 100° C. for 44 h [1]: 0.7%
Substance: magnesium salt of acetate ester of hexahydro-β-acid

- Content when being heated at 100° C. for 20 h [1]: 0.35%
- Content when being heated at 100° C. for 44 h [1]: 0.09%
Substance: calcium salt of hexahydro-β-acid

- Content when being heated at 100° C. for 20 h [1]: 1.21%
- Content when being heated at 100° C. for 44 h [1]: 0.31%
Substance: calcium salt of acetate ester of hexahydro-β-acid

- Content when being heated at 100° C. for 20 h [1]: 2.0%
- Content when being heated at 100° C. for 44 h [1]: 1.96%
Substance: laurate ester of hexahydro-β-acid

Source: patent US20160368853A1, “MONOESTERS, INNER COMPLEX SALTS OR MONOESTER SALTS OF HEXAHYDRO-BETA-ACID AND APPLICATION THEREOF AS ANIMAL FEED ADDITIVES” (GUANGZHOU INSIGHTER BIOTECHNOLOGY CO., LTD., priority 2014, published 2016)
